# Data from patent US11180484B2, “Pyrazole derivatives as plasma kallikrein inhibitors” (KALVISTA PHARMACEUTICALS LIMITED, priority 2016, dated 2021).
# Experiments:
# [1] = target: Human FXIa (Homo sapiens (Human), UniProt P03951); assay: Determination of the % inhibition / IC50 for FXIa; format: biochemical; conditions: for IC50: 25° C., substrate Z-Gly-Pro-Arg-AFC
# Procedure: FXIa inhibitory activity in vitro was determined using standard published methods (see e.g. Johansen et al., Int. J. Tiss. Reac. 1986, 8, 185; Shori et al., Biochem. Pharmacol., 1992, 43, 1209; Sturzebecher et al., Biol. Chem. Hoppe-Seyler, 1992, 373, 1025). […]
# [2] = Intrinsic clearance in human liver microsomes; format: in vitro ADME; conditions: human liver microsomes 0.5 mg/mL, 5 μM test compound, 37° C.; read-out: Human liver microsome (Clint μL/min/mg protein)
# Procedure: (§1) Rat or human liver microsomes (0.5 mg/mL; Corning) were incubated with 5 μM test compound at 37° C. on a shaking platform (150 rpm). Samples were taken at 0, 6, 12, 18, 24 and 60 min and test compound concentrations were determined by LCMS against a calibration curve.
# [3] = target: Human Factor XIIa (Homo sapiens (Human), UniProt P00748); assay: Factor XIIa inhibitory activity in vitro; format: biochemical; conditions: 25° C., substrate H-DPro-Phe-Arg-AFC; read-out: IC50 (human FXIIa)
# Procedure: (§2) Human Factor XIIa (Enzyme Research Laboratories) was incubated at 25° C. with the fluorogenic substrate H-DPro-Phe-Arg-AFC and various concentrations of the test compound. Residual enzyme activity (initial rate of reaction) was determined by measuring the change in […] at 410 nm and the IC50 value for the test compound was determined.
# [4] = Intrinsic clearance in rat liver microsomes; format: in vitro ADME; conditions: rat liver microsomes 0.5 mg/mL, 5 μM test compound, 37° C.; read-out: rat liver microsome (Clint μL/min/mg protein)
# Procedure: as §1
# [5] = In vitro permeability, Caco-2 model for oral absorption; format: in vitro ADME; conditions: human, apical to basolateral, 50 μM test compound, 37° C.
# Procedure: In vitro permeability was determined using the Caco-2 model for oral absorption. The methodology was adapted from standard published methods (Wang Z, Hop C. E., Leung K. H. and Pang J. (2000) J Mass Spectrom 35(1); 71-76). The Caco-2 monolayers were established in a Biocoat™ HTS fibrillar collagen 24 well multiwell insert system (1.0 μm, PET membrane, Corning 354803) in which 200,000 cells were seeded into each insert and maintained over 3 days before being utilised in the permeability assay. For the assay, 50 μM test compound is added to the apical side of the inserts and incubated for 1 hour at 37° C. on a shaking platform (120 rpm). Apical to basolateral transport was determined by measuring the test article in both compartments by LCMS following the 1 hour incubation. The integrity of the Caco-2 monolayers was confirmed by two methods, (i) comparison of pre- and post-experiment transepithelial electrical resistance (TEER) and, (ii) assessment of Lucifer Yellow flux.
# [6] = target: Human plasma kallikrein (Homo sapiens (Human), UniProt P03952); assay: Determination of the IC50 for plasma kallikrein; format: biochemical; conditions: 25° C., substrate H-DPro-Phe-Arg-AFC; read-out: IC50 (human PKal)
# Procedure: as §2, with “plasma kallikrein (Protogen)” for “Factor XIIa (Enzyme Research Laboratories)”
# [7] = target: Human KLK1 (Homo sapiens (Human), UniProt P06870); assay: Determination of the IC50 for KLK1; format: biochemical; conditions: 25° C., substrate H-DVal-Leu-Arg-AFC
# Procedure: as §2, with “KLK1 (Callbiochem)” for “Factor XIIa (Enzyme Research Laboratories)”, “H-DVal-Leu-Arg-AFC” for “H-DPro-Phe-Arg-AFC”
# Chain of Human Factor XIIa (P00748 373-615): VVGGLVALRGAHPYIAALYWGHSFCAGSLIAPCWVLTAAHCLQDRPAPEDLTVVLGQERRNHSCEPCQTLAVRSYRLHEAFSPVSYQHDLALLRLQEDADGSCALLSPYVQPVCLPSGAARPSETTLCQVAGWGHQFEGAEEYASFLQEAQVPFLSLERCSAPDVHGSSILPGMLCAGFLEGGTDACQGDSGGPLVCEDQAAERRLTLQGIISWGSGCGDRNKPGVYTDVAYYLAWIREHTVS
# Chain of Human plasma kallikrein (P03952 391-638): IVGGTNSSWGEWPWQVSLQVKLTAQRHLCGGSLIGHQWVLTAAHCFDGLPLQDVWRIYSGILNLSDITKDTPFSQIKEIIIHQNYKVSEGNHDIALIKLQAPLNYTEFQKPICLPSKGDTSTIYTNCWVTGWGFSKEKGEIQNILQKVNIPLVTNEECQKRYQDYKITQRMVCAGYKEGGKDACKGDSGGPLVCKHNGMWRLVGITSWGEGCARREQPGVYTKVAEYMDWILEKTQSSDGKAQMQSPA
# Chain of Human plasma kallikrein (P03952 20-390): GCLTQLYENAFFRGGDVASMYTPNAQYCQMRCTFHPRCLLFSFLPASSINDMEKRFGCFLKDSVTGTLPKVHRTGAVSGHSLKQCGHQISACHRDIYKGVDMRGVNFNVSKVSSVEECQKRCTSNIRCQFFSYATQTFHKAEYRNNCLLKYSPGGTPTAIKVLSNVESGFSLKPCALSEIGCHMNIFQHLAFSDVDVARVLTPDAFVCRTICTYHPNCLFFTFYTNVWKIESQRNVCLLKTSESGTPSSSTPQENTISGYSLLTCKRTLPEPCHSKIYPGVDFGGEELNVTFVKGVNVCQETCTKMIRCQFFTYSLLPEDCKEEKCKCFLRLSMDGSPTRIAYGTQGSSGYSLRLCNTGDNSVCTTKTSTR
# Chain of Human KLK1 (P06870 25-262): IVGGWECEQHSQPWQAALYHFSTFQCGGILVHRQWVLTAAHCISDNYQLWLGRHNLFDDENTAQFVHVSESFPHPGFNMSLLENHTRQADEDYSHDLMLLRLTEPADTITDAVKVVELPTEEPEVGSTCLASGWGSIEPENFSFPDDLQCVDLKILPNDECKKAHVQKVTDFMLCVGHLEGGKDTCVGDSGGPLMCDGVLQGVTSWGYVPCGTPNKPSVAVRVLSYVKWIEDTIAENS
# Chain of Human FXIa (P03951 388-625): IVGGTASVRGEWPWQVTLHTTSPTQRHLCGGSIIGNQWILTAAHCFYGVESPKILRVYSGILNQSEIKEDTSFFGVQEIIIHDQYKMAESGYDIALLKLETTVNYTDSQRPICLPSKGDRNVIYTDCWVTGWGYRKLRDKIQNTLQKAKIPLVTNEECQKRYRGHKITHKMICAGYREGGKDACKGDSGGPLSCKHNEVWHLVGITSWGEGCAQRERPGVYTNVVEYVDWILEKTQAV
# Chain of Human FXIa (P03951 19-387): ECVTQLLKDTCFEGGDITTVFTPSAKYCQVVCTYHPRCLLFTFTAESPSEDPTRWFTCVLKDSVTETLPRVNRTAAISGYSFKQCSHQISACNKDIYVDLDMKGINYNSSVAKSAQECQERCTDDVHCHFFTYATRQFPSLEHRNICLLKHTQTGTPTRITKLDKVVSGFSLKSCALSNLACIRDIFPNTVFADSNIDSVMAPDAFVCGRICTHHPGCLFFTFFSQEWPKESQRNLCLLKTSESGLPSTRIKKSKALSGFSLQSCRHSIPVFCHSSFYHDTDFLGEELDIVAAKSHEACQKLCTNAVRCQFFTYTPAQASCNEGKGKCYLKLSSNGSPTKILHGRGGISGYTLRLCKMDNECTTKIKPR
SMILES,"inhibition at 40 µM ([1]; 40 μM test compound, read-out: % Inhibition @ 40 μM (human FXIa)) [%]",IC50 [1] [µM],microsomal CLint at 5 μM [2] [µL/min/mg],IC50 [3] [µM],microsomal CLint at 5 μM [4] [µL/min/mg],"Papp at 1 h, 50 μM [5] [×10⁻⁶ cm/s]",IC50 [6] [µM],IC50 [7] [µM]
"COc1ccc(C#N)c(CNC(=O)c2cn(Cc3ccc(Cn4ccccc4=O)cc3)nc2N(C)C)c1F [Example 44, N-[(6-cyano-2-fluoro-3-methoxyphenyl)methyl]-3-(dimethylamino)-1-({4-[(2-oxopyridin-1-yl)methyl]phenyl}methyl)pyrazole-4-carboxamide]",32,> 40,162,> 40,101,17,0.0088,> 80
"COCc1nn(Cc2ccc(Cn3cc(C)cn3)cc2)cc1C(=O)NCc1nccc(OC)c1F [Example 1, N-[(3-fluoro-4-methoxypyridin-2-yl)methyl]-3-(methoxymethyl)-1-({4-[(4-methylpyrazol-1-yl)methyl]phenyl}methyl)pyrazole-4-carboxamide]",–,> 40,33,> 40,52,28,0.0261,> 40
"COCc1nn(Cc2ccc(Cn3ccccc3=O)cc2)cc1C(=O)NCc1c(C(N)=O)ccc(OC)c1F [Example 42, N-[(6-carbamoyl-2-fluoro-3-methoxyphenyl)methyl]-3-(methoxymethyl)-1-({4-[(2-oxopyridin-1-yl)methyl]phenyl}methyl)pyrazole-4-carboxamide]",–,> 40,8,> 4,11,4,0.0036,> 4
"COCc1nn(Cc2ccc(Cn3cccn3)cc2)cc1C(=O)NCc1cccc(Cl)c1 [Reference Example I, reference compound]",–,> 40,77,> 40,153,15,2.02,> 40
"COCc1nn(Cc2cnc(N3CCCC3)nc2)cc1C(=O)NCc1c(C#N)ccc(OC)c1F [Example 58, N-[(6-cyano-2-fluoro-3-methoxyphenyl)methyl]-3-(methoxymethyl)-1-{[2-(pyrrolidin-1-yl)pyrimidin-5-yl]methyl}pyrazole-4-carboxamide]",–,8.5,–,> 40,–,26,0.057,> 40
"COCc1nn(Cc2ccc(Cn3ccccc3=O)cn2)cc1C(=O)NCc1c(C#N)ccc(OC)c1F [Example 51, N-[(6-cyano-2-fluoro-3-methoxyphenyl)methyl]-3-(methoxymethyl)-1-({5-[(2-oxopyridin-1-yl)methyl]pyridin-2-yl}methyl)pyrazole-4-carboxamide]",–,> 40,30,> 4,25,3,0.0213,> 4
"COc1ccc(-n2cnnn2)c(CNC(=O)c2cnn(Cc3cnc(N4CCCC4)nc3)c2)c1F [Reference Example K, reference compound]",–,0.076,–,> 40,–,3,0.002,> 40
"Nc1nn(Cc2ccc(Cn3ccccc3=O)cc2)cc1C(=O)NCc1cc(Cl)ccc1-n1cnnn1 [Example 71, 3-amino-N-{[5-chloro-2-(1,2,3,4-tetrazol-1-yl)phenyl]methyl}-1-({4-[(2-oxopyridin-1-yl)methyl]phenyl}methyl)pyrazole-4-carboxamide]",–,4.6,17,> 4,17,1,0.0003,> 4
"COCc1nn(Cc2ccc(Cn3cccn3)cc2)cc1C(=O)NCc1cccc(Cl)c1F [Reference Example J, reference compound]",–,> 40,110,> 40,187,12,2.87,> 40
"COCc1nn(Cc2ccc(N3CCC(F)(F)C3)nc2)cc1C(=O)NCc1c(-n2cnnn2)ccc(OC)c1F [Example 87, 1-{[6-(3,3-difluoropyrrolidin-1-yl)pyridin-3-yl]methyl}-N-{[2-fluoro-3-methoxy-6-(1,2,3,4-tetrazol-1-yl)phenyl]methyl}-3-(methoxymethyl)pyrazole-4-carboxamide]",–,0.161,–,> 40,–,4,0.0008,> 40
"COCc1nn(Cc2ccc(Cn3ccccc3=O)cc2)cc1C(=O)NCc1cc(F)ccc1-n1cnnn1 [Example 49, N-{[5-fluoro-2-(1,2,3,4-tetrazol-1-yl)phenyl]methyl}-3-(methoxymethyl)-1-({4-[(2-oxopyridin-1-yl)methyl]phenyl}methyl)pyrazole-4-carboxamide]",–,> 40,18,> 4,36,6,0.0159,> 4
"COCc1nn(Cc2ccc(Cn3ccccc3=O)nc2)cc1C(=O)NCc1c(C#N)ccc(OC)c1F [Example 52, N-[(6-cyano-2-fluoro-3-methoxyphenyl)methyl]-3-(methoxymethyl)-1-({6-[(2-oxopyridin-1-yl)methyl]pyridin-3-yl}methyl)pyrazole-4-carboxamide]",–,> 40,16,> 4,8,5,0.0064,> 4
"COCc1nn(Cc2ccc(Cn3ccccc3=O)cc2)cc1C(=O)NCc1c(Cl)cccc1-n1cnnn1 [Example 73, N-{[2-chloro-6-(1,2,3,4-tetrazol-1-yl)phenyl]methyl}-3-(methoxymethyl)-1-({4-[(2-oxopyridin-1-yl)methyl]phenyl}methyl)pyrazole-4-carboxamide]",–,> 40,–,> 4,–,4,0.0231,> 4
"COCc1nn(Cc2ccc(Cn3ccccc3=O)cc2)cc1C(=O)NCc1cc(OC)ncc1C#N [Example 8, N-[(5-cyano-2-methoxypyridin-4-yl)methyl]-3-(methoxymethyl)-1-({4-[(2-oxopyridin-1-yl)methyl]phenyl}methyl)pyrazole-4-carboxamide]",–,> 40,–,> 4,–,–,0.162,> 4
"COc1ccnc(CNC(=O)c2cn(Cc3ccc(Cn4ccccc4=O)cc3)nc2N(C)C)c1F [Example 7, 3-(dimethylamino)-N-[(3-fluoro-4-methoxypyridin-2-yl)methyl]-1-({4-[(2-oxopyridin-1-yl)methyl]phenyl}methyl)pyrazole-4-carboxamide]",–,> 40,22,> 40,8,10,0.018,> 40
